The record followed here is patent publication US20170274083A1, “NASAL COMPOSITION HAVING ANTI-VIRAL PROPERTIES” (SOFIBEL S.A.S.-A COMPANY ULTIMATELY OWNED BY CHURCH & …, priority 2014, published 2017).

For this test, the system named is HRV-A16. Put plainly: Anti-viral effect: inhibition of HRV-A16 replication (viral RNA). In kind it is cell-based, human rhinovirus. Conditions: applied 1 h before infection; change in viral RNA; fully differentiated human airway epithelial cells. On the procedure: The example 1 composition is tested according to the test of evaluation of the potential activity against HRV-A16 (a rhinovirus responsible for colds) on fully differentiated human airway epithelial cells culture. The compositions are first applied before infection for one hour and the replication is carried out for 4 hours. 3 rinsing steps with the formulations are carried out. The remaining is collected and the RNA is dosed after cell lysis. The same collecting step is carried out 24 hours after and the same dosing step is carried out. The percentage expressed the changes in viral RNA, resulting in the % of inhibition of HRV-A16 replication, leading to the anti-viral efficacy. The tested composition is tested against rupintrivir (a known antiviral compound, providing an almost complete response).

Take `CCOC(=O)/C=C/[C@H](C[C@@H]1CCNC1=O)NC(=O)[C@@H](CC(=O)[C@@H](NC(=O)c1cc(C)on1)C(C)C)Cc1ccc(F)cc1` [Rupintrivir, rupintrivir]: the “Inhibition (%) of HRV-A16 replication” value came out at 99.62%.
